Reference: patent publication US20240270809A1, “ORAL GLP RECEPTOR AGONISTS” (priority 2020, published 2024)
Positions of bridges follow the written chain, without caps; N, C: chain ends. Non-standard residues stand in square brackets, D forms with d. Residues, ends and D or L forms follow the SMILES beside them. Nle = CCCC[C@H](N)C(=O)O; Aib = CC(C)(N)C(=O)O

Tests used:
[1] = molecular target: T1, human GLP2 receptor (Homo sapiens, UniProt O95838); assay: cAMP accumulation assay, functional agonism of human GLP2 receptor; type: cell-based; conditions: HEK cells infected with human GLP2 receptor BacMam virus, HTRF cAMP; for Emax: HEK293, read-out: Human GLP-2R agonist cAMP Emax; for EC50: read-out: Human GLP-2R agonist cAMP pEC50 (converted)
T1 construct: expressed in transfected cells; host or cells: HEK cells, BacMam virus transduction
T1 sequence (O95838 1-553): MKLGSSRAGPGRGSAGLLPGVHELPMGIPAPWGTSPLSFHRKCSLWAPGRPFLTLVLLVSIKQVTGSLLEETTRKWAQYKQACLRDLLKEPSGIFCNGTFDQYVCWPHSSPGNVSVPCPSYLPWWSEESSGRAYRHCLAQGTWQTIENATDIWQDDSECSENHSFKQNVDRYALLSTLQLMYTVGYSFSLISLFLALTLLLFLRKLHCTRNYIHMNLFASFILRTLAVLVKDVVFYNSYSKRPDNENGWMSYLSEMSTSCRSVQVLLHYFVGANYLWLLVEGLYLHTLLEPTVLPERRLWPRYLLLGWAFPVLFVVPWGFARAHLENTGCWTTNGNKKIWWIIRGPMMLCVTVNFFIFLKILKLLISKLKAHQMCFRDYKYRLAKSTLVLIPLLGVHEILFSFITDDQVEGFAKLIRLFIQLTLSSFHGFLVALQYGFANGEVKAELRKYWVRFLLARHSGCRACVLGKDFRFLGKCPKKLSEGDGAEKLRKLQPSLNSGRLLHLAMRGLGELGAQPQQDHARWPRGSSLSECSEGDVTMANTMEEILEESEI
Procedure, shortened: (§1)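 HEK cells transduced for 24 hours with human GLP2 or GLP1 receptor BacMam virus were frozen, then stimulated with agonist in HBSS containing 0.5 mM IBMX. After 45 min at 37° C, cAMP was measured by HTRF after adding detection reagents in lysis buffer.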

[2] = molecular target: T2, human GLP1 receptor (Homo sapiens, UniProt P43220); assay: cAMP accumulation assay, functional agonism of human GLP1 receptor; type: cell-based; conditions: HEK cells infected with human GLP1 receptor BacMam virus, HTRF cAMP; for Emax: HEK293, read-out: Human GLP-1R agonist cAMP Emax; for EC50: read-out: Human GLP-1R agonist cAMP pEC50 (converted)
T2 construct: expressed in transfected cells; host or cells: HEK cells, BacMam virus transduction
T2 sequence (P43220 24-463): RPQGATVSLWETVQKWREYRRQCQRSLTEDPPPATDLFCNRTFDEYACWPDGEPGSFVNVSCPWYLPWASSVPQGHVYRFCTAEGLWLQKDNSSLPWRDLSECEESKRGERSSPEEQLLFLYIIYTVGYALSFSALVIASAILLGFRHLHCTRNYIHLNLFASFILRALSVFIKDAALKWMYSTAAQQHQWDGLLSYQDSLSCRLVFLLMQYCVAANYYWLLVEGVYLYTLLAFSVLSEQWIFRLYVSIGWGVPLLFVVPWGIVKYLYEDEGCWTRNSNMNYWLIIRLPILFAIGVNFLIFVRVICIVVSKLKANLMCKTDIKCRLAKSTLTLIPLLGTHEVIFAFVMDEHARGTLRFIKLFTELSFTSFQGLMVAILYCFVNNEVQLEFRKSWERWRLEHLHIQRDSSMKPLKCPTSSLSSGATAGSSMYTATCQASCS
Procedure, shortened: as §1

SMILES | Emax [1] [%] | EC50 [1] [nM] | Emax [2] [%] | EC50 [2] [nM]
CCCC[C@H](NC(=O)[C@H](CCC(=O)O)NC(=O)[C@H](CC(=O)O)NC(=O)[C@H](CO)NC(=O)[C@H](Cc1ccccc1)NC(=O)[C@H](CO)NC(=O)CNC(=O)[C@H](CC(=O)O)NC(=O)C(C)(C)NC(=O)[C@@H](N)Cc1c[nH]cn1)C(=O)N[C@H](Cc1ccccc1)C(=O)N[C@H](C(=O)N[C@H](C(=O)N[C@@H](CC(C)C)C(=O)N[C@@H](CC(=O)O)C(=O)N[C@H]1CCCCNC(=O)C[C@@H](C(=O)N[C@@H](CC(=O)O)C(=O)N[C@@H](Cc2ccccc2)C(=O)N[C@H](C(=O)N[C@@H](CC(N)=O)C(=O)N[C@@H](Cc2c[nH]c3ccccc23)C(=O)N[C@@H](CC(C)C)C(=O)N[C@H](C(=O)N[C@@H](CCC(N)=O)C(=O)N[C@H](C(=O)N[C@@H](CCCCN)C(=O)N[C@H](C(=O)N[C@H](C(=O)N[C@@H](CC(=O)O)C(N)=O)[C@@H](C)O)[C@@H](C)CC)[C@@H](C)O)[C@@H](C)CC)[C@@H](C)CC)NC(=O)[C@H](C)NC(=O)[C@H](C)NC(=O)[C@H](CCCCN)NC1=O)[C@@H](C)CC)[C@@H](C)O [Example 103] (H-H[Aib]DGSFSDE[Nle][dF]TILDKKAADDFINWLIQTKITD-NH2; lactam 16-20) | 100 | 0.00158 | 97 | 2
CCCC[C@H](NC(=O)[C@H](CCC(=O)O)NC(=O)[C@@H]1CCCCNC(=O)CC[C@H](NC(=O)[C@H](CC(=O)O)NC(=O)C(C)(C)NC(=O)[C@@H](N)Cc2c[nH]cn2)C(=O)N[C@@H](CO)C(=O)N[C@@H](Cc2ccccc2)C(=O)N[C@@H](CO)C(=O)N1)C(=O)N[C@H](Cc1ccccc1)C(=O)N[C@H](C(=O)N[C@H](C(=O)N[C@@H](CC(C)C)C(=O)N[C@@H](CC(=O)O)C(=O)N[C@@H](CC(C)C)C(=O)N[C@@H](CCCCN)C(=O)N[C@@H](C)C(=O)N[C@@H](C)C(=O)N[C@@H](CCCCN)C(=O)N[C@@H](CC(=O)O)C(=O)N[C@@H](Cc1ccccc1)C(=O)N[C@H](C(=O)N[C@@H](CC(N)=O)C(=O)N[C@@H](Cc1c[nH]c2ccccc12)C(=O)N[C@@H](CC(C)C)C(=O)N[C@H](C(=O)N[C@@H](CCC(N)=O)C(=O)N[C@H](C(=O)N[C@H]1CCC(=O)NCCCC[C@@H](C(N)=O)NC(=O)[C@H]([C@@H](C)O)NC(=O)[C@H]([C@@H](C)CC)NC1=O)[C@@H](C)O)[C@@H](C)CC)[C@@H](C)CC)[C@@H](C)CC)[C@@H](C)O [Example 104] (H-H[Aib]DESFSKE[Nle][dF]TILDLKAAKDFINWLIQTEITK-NH2; lactam 4-8, 30-33 (inferred); C-terminus assumed) | 102 | 0.501 | 88.3 | 3.98

Results, then the compound that gave them:

Emax [1] [%] | EC50 [1] [nM] | Emax [2] [%] | EC50 [2] [nM] | SMILES
101 | 0.00501 | 97.1 | 2.51 | CCCC[C@H](NC(=O)[C@H](CCC(=O)O)NC(=O)[C@H](CC(=O)O)NC(=O)[C@H](CO)NC(=O)[C@H](Cc1ccccc1)NC(=O)[C@H](CO)NC(=O)CNC(=O)[C@H](CC(=O)O)NC(=O)C(C)(C)NC(=O)[C@@H](N)Cc1c[nH]cn1)C(=O)N[C@H](Cc1ccccc1)C(=O)N[C@H](C(=O)N[C@H](C(=O)N[C@@H](CC(C)C)C(=O)N[C@@H](CC(=O)O)C(=O)N[C@@H](CC(C)C)C(=O)N[C@@H](CCCCN)C(=O)N[C@@H](C)C(=O)N[C@@H](C)C(=O)N[C@@H](CCCCN)C(=O)N[C@@H](CC(=O)O)C(=O)N[C@@H](Cc1ccccc1)C(=O)N[C@H](C(=O)N[C@H]1CCC(=O)NCCCC[C@@H](C(=O)N[C@H](C(=O)N[C@@H](CCCCN)C(=O)N[C@H](C(=O)N[C@H](C(=O)N[C@@H](CC(=O)O)C(N)=O)[C@@H](C)O)[C@@H](C)CC)[C@@H](C)O)NC(=O)[C@H]([C@@H](C)CC)NC(=O)[C@H](CC(C)C)NC(=O)[C@H](Cc2c[nH]c3ccccc23)NC1=O)[C@@H](C)CC)[C@@H](C)CC)[C@@H](C)O [Example 99] (H-H[Aib]DGSFSDE[Nle][dF]TILDLKAAKDFIEWLIKTKITD-NH2; lactam 24-28 (inferred); C-terminus assumed)
100 | 0.00501 | 96 | 0.794 | CCCC[C@H](NC(=O)[C@H](CCC(=O)O)NC(=O)[C@H](CC(=O)O)NC(=O)[C@H](CO)NC(=O)[C@H](Cc1ccccc1)NC(=O)[C@H](CO)NC(=O)CNC(=O)[C@H](CC(=O)O)NC(=O)C(C)(C)NC(=O)[C@@H](N)Cc1c[nH]cn1)C(=O)N[C@H](Cc1ccccc1)C(=O)N[C@H](C(=O)N[C@H](C(=O)N[C@@H](CC(C)C)C(=O)N[C@@H](CC(=O)O)C(=O)N[C@@H](CC(C)C)C(=O)N[C@@H](CCCCN)C(=O)N[C@@H](C)C(=O)N[C@@H](C)C(=O)N[C@@H](CCCCN)C(=O)N[C@@H](CC(=O)O)C(=O)N[C@@H](Cc1ccccc1)C(=O)N[C@H](C(=O)N[C@H]1CCCCNC(=O)C[C@@H](C(=O)N[C@H](C(=O)N[C@@H](CCCCN)C(=O)N[C@H](C(=O)N[C@H](C(=O)N[C@@H](CC(=O)O)C(N)=O)[C@@H](C)O)[C@@H](C)CC)[C@@H](C)O)NC(=O)[C@H]([C@@H](C)CC)NC(=O)[C@H](CC(C)C)NC(=O)[C@H](Cc2c[nH]c3ccccc23)NC1=O)[C@@H](C)CC)[C@@H](C)CC)[C@@H](C)O [Example 100] (H-H[Aib]DGSFSDE[Nle][dF]TILDLKAAKDFIKWLIDTKITD-NH2; lactam 24-28; N-terminus and C-terminus assumed)
101 | 0.0316 | 96.7 | 12.6 | CCCC[C@H](NC(=O)[C@H](CCC(=O)O)NC(=O)[C@H](CC(=O)O)NC(=O)[C@H](CO)NC(=O)[C@H](Cc1ccccc1)NC(=O)[C@H](CO)NC(=O)CNC(=O)[C@H](CC(=O)O)NC(=O)C(C)(C)NC(=O)[C@@H](N)Cc1c[nH]cn1)C(=O)N[C@H](Cc1ccccc1)C(=O)N[C@H](C(=O)N[C@H](C(=O)N[C@@H](CC(C)C)C(=O)N[C@@H](CC(=O)O)C(=O)N[C@@H](CC(C)C)C(=O)N[C@@H](CCCCN)C(=O)N[C@@H](C)C(=O)N[C@@H](C)C(=O)N[C@@H](CCCCN)C(=O)N[C@@H](CC(=O)O)C(=O)N[C@@H](Cc1ccccc1)C(=O)N[C@H](C(=O)N[C@@H](CC(N)=O)C(=O)N[C@@H](Cc1c[nH]c2ccccc12)C(=O)N[C@@H](CC(C)C)C(=O)N[C@H](C(=O)N[C@@H](CCC(N)=O)C(=O)N[C@H](C(=O)N[C@H]1CCCCNC(=O)CC[C@@H](C(N)=O)NC(=O)[C@H]([C@@H](C)O)NC(=O)[C@H]([C@@H](C)CC)NC1=O)[C@@H](C)O)[C@@H](C)CC)[C@@H](C)CC)[C@@H](C)CC)[C@@H](C)O [Example 101] (H-H[Aib]DGSFSDE[Nle][dF]TILDLKAAKDFINWLIQTKITE-NH2; lactam 30-33 (inferred); C-terminus assumed)
